T1: Mucosa-associated lymphoid tissue lymphoma translocation protein 1 (Homo sapiens, UniProt Q9UDY8)
T1 sequence (Q9UDY8 whole entry): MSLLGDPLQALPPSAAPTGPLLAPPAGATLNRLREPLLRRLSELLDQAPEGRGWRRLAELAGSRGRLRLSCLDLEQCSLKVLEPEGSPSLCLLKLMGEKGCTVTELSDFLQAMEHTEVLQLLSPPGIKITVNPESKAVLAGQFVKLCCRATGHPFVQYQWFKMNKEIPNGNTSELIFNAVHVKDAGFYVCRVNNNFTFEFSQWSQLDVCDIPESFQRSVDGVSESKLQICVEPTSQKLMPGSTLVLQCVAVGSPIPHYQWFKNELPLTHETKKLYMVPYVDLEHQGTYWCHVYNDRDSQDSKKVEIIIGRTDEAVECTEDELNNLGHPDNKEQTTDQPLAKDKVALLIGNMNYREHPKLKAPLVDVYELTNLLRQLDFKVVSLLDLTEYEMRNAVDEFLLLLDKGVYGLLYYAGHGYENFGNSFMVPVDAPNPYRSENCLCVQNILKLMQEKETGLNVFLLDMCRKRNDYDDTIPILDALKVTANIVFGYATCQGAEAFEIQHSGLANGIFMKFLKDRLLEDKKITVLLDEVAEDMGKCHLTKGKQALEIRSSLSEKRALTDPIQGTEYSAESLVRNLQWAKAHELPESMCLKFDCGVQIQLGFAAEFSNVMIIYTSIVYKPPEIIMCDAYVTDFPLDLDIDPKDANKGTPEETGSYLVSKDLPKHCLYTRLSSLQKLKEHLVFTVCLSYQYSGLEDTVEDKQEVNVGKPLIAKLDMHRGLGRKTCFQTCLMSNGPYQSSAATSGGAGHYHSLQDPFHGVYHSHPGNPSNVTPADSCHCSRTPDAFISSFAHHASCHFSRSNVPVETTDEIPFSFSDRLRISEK

T2: Mucosa-associated lymphoid tissue lymphoma translocation protein 1 (Homo sapiens) (UniProt Q9UDY8)
T2 sequence (whole entry): T1 sequence (Q9UDY8 whole entry)

B1: Mucosa-associated lymphoid tissue lymphoma translocation protein 1 (Homo sapiens), Q9UDY8 (protein)
chain: T1 sequence (Q9UDY8 whole entry)

Tests used:
[1] = biological target: T1, Mucosa-associated lymphoid tissue lymphoma translocation protein 1; test: Inhibition of MALT1 (unknown origin)
[2] = biological target: T2, Mucosa-associated lymphoid tissue lymphoma translocation protein 1 (Homo sapiens); test: Inhibition of MALT1 (unknown origin) at 25 uM relative to control
[3] = biological target: Nuclear factor NF-kappa-B complex (Homo sapiens, UniProt P19838+Q00653+Q04206); test: Inhibition of NF-kappaB (unknown origin); format: protein-complex assay
[4] = substrate: CN(C)CCNC(=O)c1cc(-c2ccc(Cl)cc2)n(-c2ccc(Cl)cc2)n1; conditions: Homo sapiens; dose 0.5 µM
Description: Non-competitive inhibition of MALT1 (unknown origin) assessed as Michaelis-constant at 0.5 uM by Michaelis-Menten analysis (Rvb = 246.9 microM)

Sequence of Nuclear factor NF-kappa-B complex (P19838 1-433 limits assumed): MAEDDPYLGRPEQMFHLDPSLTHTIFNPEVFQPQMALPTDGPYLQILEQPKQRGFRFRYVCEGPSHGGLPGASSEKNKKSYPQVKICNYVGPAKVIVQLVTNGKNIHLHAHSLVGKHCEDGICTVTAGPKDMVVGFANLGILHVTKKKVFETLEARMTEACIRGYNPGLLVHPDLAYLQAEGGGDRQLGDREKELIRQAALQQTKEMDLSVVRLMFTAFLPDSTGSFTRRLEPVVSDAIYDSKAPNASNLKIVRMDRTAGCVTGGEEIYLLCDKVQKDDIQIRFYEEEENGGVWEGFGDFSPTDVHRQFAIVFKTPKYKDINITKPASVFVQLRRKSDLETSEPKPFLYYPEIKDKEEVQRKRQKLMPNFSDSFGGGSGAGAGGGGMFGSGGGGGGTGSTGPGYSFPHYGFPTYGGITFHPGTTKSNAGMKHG
Sequence of Nuclear factor NF-kappa-B complex (Q00653 1-454 limits assumed): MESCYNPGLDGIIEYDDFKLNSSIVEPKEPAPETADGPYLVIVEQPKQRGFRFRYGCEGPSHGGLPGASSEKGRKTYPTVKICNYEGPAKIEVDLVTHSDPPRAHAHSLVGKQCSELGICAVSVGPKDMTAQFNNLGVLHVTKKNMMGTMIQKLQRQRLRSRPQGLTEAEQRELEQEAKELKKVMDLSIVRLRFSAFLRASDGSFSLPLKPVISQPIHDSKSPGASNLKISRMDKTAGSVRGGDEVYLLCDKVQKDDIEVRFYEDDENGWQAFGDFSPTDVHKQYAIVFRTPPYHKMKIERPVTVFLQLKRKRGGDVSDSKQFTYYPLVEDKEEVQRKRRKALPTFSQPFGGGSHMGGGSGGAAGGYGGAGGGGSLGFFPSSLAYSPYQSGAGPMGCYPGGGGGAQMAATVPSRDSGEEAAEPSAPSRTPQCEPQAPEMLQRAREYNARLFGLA
Sequence of Nuclear factor NF-kappa-B complex (Q04206 whole entry): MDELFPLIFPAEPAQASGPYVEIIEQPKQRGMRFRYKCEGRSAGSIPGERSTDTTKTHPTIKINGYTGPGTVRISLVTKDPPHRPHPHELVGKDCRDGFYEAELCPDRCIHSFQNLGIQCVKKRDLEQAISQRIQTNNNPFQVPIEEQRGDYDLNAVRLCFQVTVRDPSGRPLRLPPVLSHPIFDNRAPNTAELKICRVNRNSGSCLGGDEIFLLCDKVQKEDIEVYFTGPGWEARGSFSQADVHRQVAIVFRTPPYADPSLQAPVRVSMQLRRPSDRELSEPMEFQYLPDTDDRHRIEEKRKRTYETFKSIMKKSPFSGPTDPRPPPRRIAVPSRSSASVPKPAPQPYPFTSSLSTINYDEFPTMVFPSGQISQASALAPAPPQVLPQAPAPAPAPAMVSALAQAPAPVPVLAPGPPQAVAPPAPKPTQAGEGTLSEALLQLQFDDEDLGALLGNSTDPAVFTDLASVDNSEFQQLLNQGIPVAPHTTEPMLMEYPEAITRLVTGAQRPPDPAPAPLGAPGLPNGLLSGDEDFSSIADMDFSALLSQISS

Molecule	IC50 [1] [µM]	inhibition [2] [%]	IC50 [3] [µM]	Km [4] [µM]
O=C(NCCO)c1cc(-c2ccc(Cl)cc2)n(-c2ccc(Cl)cc2)n1	6.55			
O=C(c1cc(-c2ccc(Cl)cc2)n(-c2ccc(Cl)cc2)n1)N1CCCC1	> 25			
CNC(=O)c1cc(-c2ccc(Cl)cc2)n(Cc2ccccc2)n1	16.3	57		
CNC(=O)c1cc(-c2ccc(Cl)cc2)n(C2CCCCC2)n1		63		
CS(=O)(=O)NCCNC(=O)c1cc(-c2ccc(Cl)cc2)n(-c2ccc(Cl)cc2)n1	4.37			
O=C(NCCc1ccccc1)c1cc(-c2ccc(Cl)cc2)n(-c2ccc(Cl)cc2)n1	> 25			
CN1CCOC[C@H]1CNC(=O)c1cc(-c2ccc(Cl)cc2)n(-c2ccc(Cl)cc2)n1	2.01			
CNC(=O)c1cc(-c2ccccc2)n(-c2ccc(Cl)cc2)n1	16.8	61		
CNC(=O)c1cc(-c2ccc(Cl)cc2)n(-c2ccccc2Cl)n1	> 25	46		
CN1CCC(O)CC1CNC(=O)c1cc(-c2ccc(Cl)cc2)n(-c2ccc(Cl)cc2)n1 (stereo unspecified)	0.993			
CNC(=O)c1cc(-c2ccc(C#N)cc2)n(-c2ccc(Cl)cc2)n1	> 25	31		
O=C(NCC1CCCCC1)c1cc(-c2ccc(Cl)cc2)n(-c2ccc(Cl)cc2)n1	> 25			
CNC(=O)c1cc(-c2ccc(Cl)cc2)n(C)n1	> 25	7.7		
CNC(=O)c1cc(-c2ccc(Cl)cc2)n(-c2ccc(Cl)cc2)n1	7.01	72	9.34	
CNC(=O)c1cc(-c2ccccc2Cl)n(-c2ccc(Cl)cc2)n1	> 25	23		
CNC(=O)c1cc(-c2ccco2)n(-c2ccc(Cl)cc2)n1	> 25	20		
O=C(NCC1COCCN1)c1cc(-c2ccc(Cl)cc2)n(-c2ccc(Cl)cc2)n1 (stereo unspecified)	0.819			
CN(C)CCCCNC(=O)c1cc(-c2ccc(Cl)cc2)n(-c2ccc(Cl)cc2)n1	2.22			
CNCCNC(=O)c1cc(-c2ccc(Cl)cc2)n(-c2ccc(Cl)cc2)n1	0.8			
CN(C)C(=O)c1cc(-c2ccc(Cl)cc2)n(-c2ccc(Cl)cc2)n1	21.2			
CN(C)CCCNC(=O)c1cc(-c2ccc(Cl)cc2)n(-c2ccc(Cl)cc2)n1	2.63			
CN1CCCC(NC(=O)c2cc(-c3ccc(Cl)cc3)n(-c3ccc(Cl)cc3)n2)C1 (stereo unspecified)	1.7			
CNC(=O)c1cc(-c2ccc(S(C)(=O)=O)cc2)n(-c2ccc(Cl)cc2)n1	> 25	5.7		

Molecule	IC50 [1] [µM]	inhibition [2] [%]	IC50 [3] [µM]	Km [4] [µM]
NCCNC(=O)c1cc(-c2ccc(Cl)cc2)n(-c2ccc(Cl)cc2)n1	1.98			
CNC(=O)c1cc(-c2ccc(Cl)cc2)n(-c2cccc(Cl)c2)n1		57		
NC(=O)CCNC(=O)c1cc(-c2ccc(Cl)cc2)n(-c2ccc(Cl)cc2)n1	13.4			
CN(C)C1CCN(C(=O)c2cc(-c3ccc(Cl)cc3)n(-c3ccc(Cl)cc3)n2)C1 (stereo unspecified)	10.6			
CNC(=O)c1cc(-c2ccsc2)n(-c2ccc(Cl)cc2)n1	> 25	26		
O=C(NCCCO)c1cc(-c2ccc(Cl)cc2)n(-c2ccc(Cl)cc2)n1	12.4			
CCN1CCC[C@@H]1CNC(=O)c1cc(-c2ccc(Cl)cc2)n(-c2ccc(Cl)cc2)n1	2.1			
CC(=O)NCCNC(=O)c1cc(-c2ccc(Cl)cc2)n(-c2ccc(Cl)cc2)n1	3.3			
CN(C)CCNC(=O)c1cc(-c2ccc(Cl)cc2)n(-c2ccc(Cl)cc2)n1	0.49		5.41	
CNC(=O)c1cc(-c2cccc(Cl)c2)n(-c2ccc(Cl)cc2)n1	> 25	43		
CNC(=O)c1cc(-c2ccc(F)cc2)n(-c2ccc(Cl)cc2)n1	> 25	47		
CSc1ccc2c(c1)N(CCC1CCCCN1C)c1ccccc1S2 (stereo unspecified) [THIORIDAZINE]	3.43			
CNC(=O)c1cc(-c2ccc(OC)nc2)n(-c2ccc(Cl)cc2)n1	> 25	21		
CNC(=O)c1cc(-c2ccc(Cl)cc2)n(-c2ccccc2)n1	19.8	59		
CNC(=O)c1cc(-c2ccoc2)n(-c2ccc(Cl)cc2)n1	> 25	16		
CN1CCCCC1CNC(=O)c1cc(-c2ccc(Cl)cc2)n(-c2ccc(Cl)cc2)n1 (stereo unspecified)	0.521			
CNC(=O)c1cc(-c2ccc(OC(F)(F)F)cc2)n(-c2ccc(Cl)cc2)n1	> 25	38		
NCCCNC(=O)c1cc(-c2ccc(Cl)cc2)n(-c2ccc(Cl)cc2)n1	7.39			
CNC(=O)c1cc(-c2ccc(CO)cc2)n(-c2ccc(Cl)cc2)n1	> 25	19		
CNC(=O)c1cc(-c2ccc(C(F)(F)F)cc2)n(-c2ccc(Cl)cc2)n1	> 25	47		
CNC(=O)c1cc(-c2ccc(OC)cc2)n(-c2ccc(Cl)cc2)n1	6.55	80		
B1				234

Reference: ChEMBL document CHEMBL4814035, “Structure-activity relationship studies of 3-substituted pyrazoles as novel allosteric inhibitors of MALT1 protease” (Bioorg Med Chem Lett, 2021)
